Where two headings read alike, the source gives them in different places.
What was measured:
[1] = biological target: T1, M1 muscarinic receptor (Homo sapiens, UniProt P11229); test: Functional mobilization of intracellular calcium (FLIPR) in M1-CHO cells; type: cell-based
T1 construct: expressed in transfected cells; host or cells: CHO (M1-CHO)
T1 sequence (P11229 1-460): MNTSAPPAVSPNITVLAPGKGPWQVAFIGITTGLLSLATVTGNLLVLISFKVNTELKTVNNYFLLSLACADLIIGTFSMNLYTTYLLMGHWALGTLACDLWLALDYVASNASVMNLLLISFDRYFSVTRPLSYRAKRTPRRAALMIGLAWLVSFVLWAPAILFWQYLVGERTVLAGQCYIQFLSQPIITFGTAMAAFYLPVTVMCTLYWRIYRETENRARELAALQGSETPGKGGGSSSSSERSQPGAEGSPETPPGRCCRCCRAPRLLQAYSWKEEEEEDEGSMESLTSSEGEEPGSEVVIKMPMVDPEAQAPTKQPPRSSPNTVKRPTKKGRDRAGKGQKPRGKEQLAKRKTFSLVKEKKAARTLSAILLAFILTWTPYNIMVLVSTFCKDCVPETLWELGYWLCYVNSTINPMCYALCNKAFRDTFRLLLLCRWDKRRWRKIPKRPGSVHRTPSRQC
Method in brief: (§1)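 CHO cells stably expressing human M1 or M4 receptor were loaded with Fluo-3 AM (or Calcium 3 dye) in Hepes-buffered saline, pH 7.4, with 1 mM probenecid, 0.5% final DMSO. Agonist mode: compound added directly; antagonist mode: 15 min preincubation before carbachol at EC80. FLIPR fluorescence recorded 60 sec.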

[2] = biological target: T2, M4 muscarinic receptor (Homo sapiens, UniProt P08173); test: Functional mobilization of intracellular calcium (FLIPR) in M4-CHO cells; type: cell-based
T2 construct: expressed in transfected cells; host or cells: CHO (M4-CHO)
T2 sequence (P08173 1-479): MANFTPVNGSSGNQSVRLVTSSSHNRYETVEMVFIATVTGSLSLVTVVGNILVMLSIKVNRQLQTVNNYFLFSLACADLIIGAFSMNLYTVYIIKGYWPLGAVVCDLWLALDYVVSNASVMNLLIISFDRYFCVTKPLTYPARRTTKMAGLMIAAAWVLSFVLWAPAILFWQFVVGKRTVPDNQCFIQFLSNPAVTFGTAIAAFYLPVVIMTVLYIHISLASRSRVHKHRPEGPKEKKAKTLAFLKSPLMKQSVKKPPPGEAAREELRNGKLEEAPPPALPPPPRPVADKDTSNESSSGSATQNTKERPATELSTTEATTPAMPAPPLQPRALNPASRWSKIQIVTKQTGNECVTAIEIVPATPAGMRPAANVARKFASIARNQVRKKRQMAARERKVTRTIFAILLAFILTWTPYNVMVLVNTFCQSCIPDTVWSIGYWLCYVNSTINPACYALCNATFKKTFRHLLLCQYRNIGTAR
Method in brief: as §1

[3] = Table 4, 100% efficacy is the maximum response obtained with the Carbachol control
[4] = Table 4, modulating M1 receptor
[5] = Table 4, modulating M4 receptor
[6] = M1 receptor, calcium mobilization
[7] = M1 receptor, calcium mobilization, read-out: M1 Efficacy
[8] = M4 receptor, calcium mobilization
[9] = M4 receptor, calcium mobilization, read-out: M4 Efficacy
[10] = M1-CHO cells, calcium mobilization (FLIPR)
[11] = M1-CHO cells, calcium mobilization (FLIPR), read-out: M1 Efficacy
[12] = M4-CHO cells, calcium mobilization (FLIPR)
[13] = M4-CHO cells, calcium mobilization (FLIPR), read-out: M4 Efficacy
[14] = Table 4, M1 receptor, calcium mobilization (FLIPR)
[15] = Table 4, M4 receptor, calcium mobilization (FLIPR)
[16] = 100% efficacy is the maximum response obtained with the Carbachol control, Table 5

SMILES | Emax [1, 3] | Emax [2, 3] | M1 Activity [1, 6] | Emax [1, 7] | M4 Activity [2, 8] | Emax [2, 9] | further results
Cc1ccc2c(c1)C1(CCN(C3CC4CCC3C4)CC1)CN2C(=O)c1ccco1 (stereo not drawn) [compound 597] | 25 to 100% | < 25% | – | – | – | – | M1 Activity [1, 4]: x (activity was measured to be greater than 5.0 μM); M4 Activity [2, 5]: x (activity was measured to be greater than 5.0 μM)
O=C(C1CC1)N1CC2(CCN(C3CC4CCC(C3)N4C(=O)O[C@H]3CCOC3)CC2)c2cc(F)ccc21 (stereo partly drawn) [compound 57] | – | – | xxx (activity was measured to be less than 0.1 μM) | 65 to 85% | xxx (activity was measured to be less than 0.1 μM) | 65 to 85% | –
CCOC(=O)N1CCC(N2CCC3(CC2)CN(C(C)=O)c2ccc(-c4cccc(C)c4)cc23)CC1 [compound 6] | – | – | xxx (activity was measured to be less than 0.1 μM) | 65 to 85% | xx (activity was measured to be between 0.1 μM and 1.0 μM) | 65 to 85% | –
CCOC(=O)N1CCC(CN2CCC3(CC2)CN(C(C)=O)c2ccc(Cl)cc23)CC1 [compound 256] | – | – | xx (activity was measured to be between 0.1 μM and 1.0 μM) | < 65% | xx (activity was measured to be between 0.1 μM and 1.0 μM) | < 65% | –
C#CCOC(=O)N1CC[C@H](CN2CCC3(CC2)CN(C(=O)N(C)C)c2ccc(F)cc23)C1 [compound 443] | > 100% | > 100% | – | – | – | – | M1 Activity [1, 4]: xxx (activity was measured to be less than 2.0 μM); M4 Activity [2, 5]: xxx (activity was measured to be less than 2.0 μM)
CC(=O)NC1CC2(CCN(CC3CC4C=CC3C4)CC2)c2ccccc21 (stereo not drawn) [compound 180] | – | – | xxx (activity was measured to be less than 0.1 μM) | 65 to 85% | xxx (activity was measured to be less than 0.1 μM) | 65 to 85% | –
c1ccc2c(c1)NCC21CCN(C2CC3CCC(C3)C2)CC1 (stereo not drawn) [compound 420] | – | – | – | – | – | – | EC50 [1, 10]: 0.1 to 1 µM; Emax [1, 11]: < 65%; EC50 [2, 12]: > 1 µM; Emax [2, 13]: < 65%
CN(C)C(=O)N1CC2(CCN(C3CCN(c4ncnc5ccsc45)CC3)CC2)c2cc(F)ccc21 [compound 965] | 25 to 100% | 25 to 100% | – | – | – | – | M1 Activity [1, 14]: x (activity was measured to be greater than 5.0 μM); M4 Activity [2, 15]: xxx (activity was measured to be less than 2.0 μM)
O=C1CCCN1[C@H]1CCC2(CCN(C[C@@H]3C[C@H]4C=CC3C4)CC2)c2ccccc21 [compound 856] | 25 to 100% | 25 to 100% | – | – | – | – | M1 Activity [1, 14]: xxx (activity was measured to be less than 2.0 μM); M4 Activity [2, 15]: xxx (activity was measured to be less than 2.0 μM)
C#CCOC(=O)N1CC[C@H](CN2CCC3(CC2)CN(C(C)=O)c2ccccc23)C1 [compound 493] | > 100% | > 100% | – | – | – | – | M1 Activity [1, 4]: xxx (activity was measured to be less than 2.0 μM); M4 Activity [2, 5]: xxx (activity was measured to be less than 2.0 μM)
Cc1ccc2c(c1)C1(CCN(C3CC4CCC3C4)CC1)CN2C(=O)c1ccccn1 (stereo not drawn) [compound 813] | 25 to 100% | < 25% | – | – | – | – | M1 Activity [1, 14]: x (activity was measured to be greater than 5.0 μM); M4 Activity [2, 15]: x (activity was measured to be greater than 5.0 μM)
CCCOC(=O)N1C2CCC1CC(N1CCC3(CC1)CN(C(=O)C1CC1)c1ccc(F)cc13)C2 (stereo not drawn) [compound 389] | – | – | – | – | – | – | EC50 [1, 10]: 0.1 to 1 µM; Emax [1, 11]: 65 to 85%; EC50 [2, 12]: > 1 µM; Emax [2, 13]: < 65%
Clc1ccc2c(c1)C1(CCN(CC3CC4C=CC3C4)CC1)CN2 (stereo not drawn) [compound 147] | – | – | xxx (activity was measured to be less than 0.1 μM) | 65 to 85% | xx (activity was measured to be between 0.1 μM and 1.0 μM) | > 85% | –
CC(=O)N1CC2(CCN(C3CCN(C(=O)OC(C)C)C3)CC2)c2cc(F)ccc21 (stereo not drawn) [compound 634] | < 25% | < 25% | – | – | – | – | M1 Activity [1, 4]: x (activity was measured to be greater than 5.0 μM); M4 Activity [2, 5]: x (activity was measured to be greater than 5.0 μM)
CC(=O)N1CC2(CCN(CC3CCN(C(=O)O[C@@H]4CCOC4)CC3)CC2)c2cc(F)ccc21 [compound 82] | – | – | xxx (activity was measured to be less than 0.1 μM) | – | xx (activity was measured to be between 0.1 μM and 1.0 μM) | – | M1 Efficacy [1, 6]: xx (efficacy was calculated to be between 85% and 65%); M4 Efficacy [2, 8]: xx (efficacy was calculated to be between 85% and 65%)
CS(=O)(=O)N[C@@H]1CC2(CCN(C[C@H]3C[C@H]4CC[C@H]3C4)CC2)c2ccccc21 [compound 227] | – | – | xxx (activity was measured to be less than 0.1 μM) | > 85% | xxx (activity was measured to be less than 0.1 μM) | > 85% | –
CCCCc1cncc(N2CCC(N3CCC4(CC3)CN(C(C)=O)c3ccccc34)CC2)n1 [compound 477] | < 25% | < 25% | – | – | – | – | M1 Activity [1, 4]: x (activity was measured to be greater than 5.0 μM); M4 Activity [2, 5]: x (activity was measured to be greater than 5.0 μM)
CCOC(=O)N1CCC(N2CCC3(CC2)CN(C(C)=O)c2ccc(C4=CCCC4)cc23)CC1 [compound 426] | – | – | – | – | – | – | EC50 [1, 10]: > 1 µM; Emax [1, 11]: < 65%; EC50 [2, 12]: > 1 µM; Emax [2, 13]: < 65%
CCCC1CCC(N2CCC3(CC2)CNc2ccc(Cl)cc23)CC1 (stereo not drawn) [compound 341] | – | – | x (activity was measured to be greater than 1.0 μM) | < 65% | x (activity was measured to be greater than 1.0 μM) | < 65% | –
Cc1ccc2c(c1)C1(CCN(C3CC4CCC3C4)CC1)CN2S(C)(=O)=O (stereo not drawn) [compound 232] | – | – | xx (activity was measured to be between 0.1 μM and 1.0 μM) | < 65% | xxx (activity was measured to be less than 0.1 μM) | > 85% | –
CCOC(=O)N1CCC(N2CCC3(CC2)CN(C(C)=O)c2ccc(-c4cccnc4)cc23)CC1 [compound 234] | – | – | xxx (activity was measured to be less than 0.1 μM) | 65 to 85% | xxx (activity was measured to be less than 0.1 μM) | 65 to 85% | –
CC(=O)N1CC2(CCN(C[C@@H]3CCN(C(=O)OC(C)C)C3)CC2)c2ccccc21 [compound 996] | < 25% | < 25% | – | – | – | – | M1 Activity [1, 14]: x (activity was measured to be greater than 5.0 μM); M4 Activity [2, 15]: x (activity was measured to be greater than 5.0 μM)
CN(C)C(=O)N1CC2(CCN(C3CCN(c4nccs4)CC3)CC2)c2cc(F)ccc21 [compound 1034] | – | – | – | – | – | – | Emax [1, 16]: 25 to 100%; EC50 ([1]; CHO cells expressing M1, calcium mobilization, Table 5): < 2 µM; Emax [2, 16]: 25 to 100%; EC50 ([2]; CHO cells expressing M4, calcium mobilization, Table 5): < 2 µM
COc1cc2c(cc1OC)C1(CCN(C3CC(C)(C)CC(C)(C)C3)CC1)CC2NC(C)=O (stereo not drawn) [compound 566] | < 25% | < 25% | – | – | – | – | M1 Activity [1, 4]: x (activity was measured to be greater than 5.0 μM); M4 Activity [2, 5]: x (activity was measured to be greater than 5.0 μM)
CC#CCOC(=O)N1C2CCC1CC(N1CCC3(CC1)CN(C(C)=O)c1ccccc13)C2 (stereo not drawn) [compound 777] | 25 to 100% | 25 to 100% | – | – | – | – | M1 Activity [1, 4]: xxx (activity was measured to be less than 2.0 μM); M4 Activity [2, 5]: xxx (activity was measured to be less than 2.0 μM)
COc1ccc(CC(=O)N2CCC(N3CCC4(CC3)CN(C(=O)N(C)C)c3ccc(F)cc34)CC2)cc1 [compound 500] | < 25% | < 25% | – | – | – | – | M1 Activity [1, 4]: x (activity was measured to be greater than 5.0 μM); M4 Activity [2, 5]: x (activity was measured to be greater than 5.0 μM)
O=C(N[C@H]1CCC2(CCN(CC3CCCCC3)CC2)c2ccccc21)C1CC1 [compound 889] | 25 to 100% | 25 to 100% | – | – | – | – | M1 Activity [1, 14]: xxx (activity was measured to be less than 2.0 μM); M4 Activity [2, 15]: xxx (activity was measured to be less than 2.0 μM)

From patent US7786141B2 (Vertex Pharmaceuticals Incorporated, priority 2004, dated 2010)
